According to US11793849B2, “Method of Chinese herbal medicine extract used for treating multiple diseases caused by drug resistant bacteria infection” (priority 2016, dated 2023):
Like-named read-outs stand apart in the source and are kept apart here.

Test system: MDRAB
Test: Checkerboard assay (combined-use MIC, FIC)
Type: cell-based, Acinetobacter baumannii
Conditions: for FIC, all strains / MIC50 of the antibiotic after combined use / MIC90 of the antibiotic after combined use / reduction of the antibiotic's MIC50 vs single use / reduction of the antibiotic's MIC90 vs single use / share of strains with FIC ≤ 0.5: 20 MDRABs; for MIC: Acinetobacter baumannii, read-out: single-use MIC
How it was run: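 Checkerboard combinations of S20b and antibiotic run per NCCLS method against ESBL E. coli, MDR A. baumannii and MDR P. aeruginosa.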

[1] = antibiotic with 60% ethanol extract
[2] = antibiotic with 95% ethanol extract
[3] = antibiotic with EA (10% ethanol extract)
[4] = antibiotic with EA (water extract)

MIC50 of the antibiotic after combined use [1]: 8 µg/mL
MIC90 of the antibiotic after combined use [1]: 16 µg/mL
reduction of the antibiotic's MIC50 vs single use [1]: 75%
reduction of the antibiotic's MIC90 vs single use [1]: 50%
MIC50 of the antibiotic after combined use [2]: 8 µg/mL
MIC90 of the antibiotic after combined use [2]: 16 µg/mL
reduction of the antibiotic's MIC50 vs single use [2]: 75%
reduction of the antibiotic's MIC90 vs single use [2]: 50%
MIC50 of the antibiotic after combined use [3]: 8 µg/mL
MIC90 of the antibiotic after combined use [3]: 16 µg/mL
reduction of the antibiotic's MIC50 vs single use [3]: 75%
reduction of the antibiotic's MIC90 vs single use [3]: 50%
MIC50 of the antibiotic after combined use [4]: 8 µg/mL
MIC90 of the antibiotic after combined use [4]: 16 µg/mL
reduction of the antibiotic's MIC50 vs single use [4]: 75%
reduction of the antibiotic's MIC90 vs single use [4]: 50%
MIC (strain A1, EA=60% ethanol extract): 1 µg/mL
MIC (strain A1, EA=95% ethanol extract): 1 µg/mL
MIC (strain A2, EA=60% ethanol extract): 32 µg/mL
MIC (strain A2, EA=95% ethanol extract): 32 µg/mL
MIC (strain A3, EA=60% ethanol extract): 32 µg/mL
MIC (strain A3, EA=95% ethanol extract): 32 µg/mL
MIC (strain A4, EA=60% ethanol extract): 8 µg/mL
MIC (strain A4, EA=95% ethanol extract): 8 µg/mL
MIC (strain A5 (printed AS in tables A43, A45), EA=95% ethanol extract): 32 µg/mL
MIC (strain A5, EA=60% ethanol extract): 32 µg/mL
MIC (strain A6, EA=60% ethanol extract): 32 µg/mL
MIC (strain A6, EA=95% ethanol extract): 32 µg/mL
MIC (strain A7, EA=60% ethanol extract): 32 µg/mL
MIC (strain A7, EA=95% ethanol extract): 32 µg/mL
MIC (strain A8, EA=60% ethanol extract): 32 µg/mL
MIC (strain A8, EA=95% ethanol extract): 32 µg/mL
MIC (strain A9, EA=60% ethanol extract): 32 µg/mL
MIC (strain A9, EA=95% ethanol extract): 32 µg/mL
MIC (strain A10, EA=60% ethanol extract): 16 µg/mL
MIC (strain A10, EA=95% ethanol extract): 16 µg/mL
MIC (strain A11, EA=60% ethanol extract): 32 µg/mL
MIC (strain A11, EA=95% ethanol extract): 32 µg/mL
MIC (strain A12, EA=60% ethanol extract): 32 µg/mL
MIC (strain A12, EA=95% ethanol extract): 32 µg/mL
MIC (strain A13, EA=60% ethanol extract): 32 µg/mL
MIC (strain A13, EA=95% ethanol extract): 32 µg/mL
MIC (strain A14, EA=60% ethanol extract): 32 µg/mL
MIC (strain A14, EA=95% ethanol extract): 32 µg/mL
MIC (strain A15, EA=60% ethanol extract): 32 µg/mL
MIC (strain A15, EA=95% ethanol extract): 32 µg/mL
MIC (strain A16, EA=60% ethanol extract): 32 µg/mL
MIC (strain A16, EA=95% ethanol extract): 32 µg/mL
MIC (strain A17, EA=60% ethanol extract): 16 µg/mL
MIC (strain A17, EA=95% ethanol extract): 16 µg/mL
MIC (strain A18, EA=60% ethanol extract): 32 µg/mL
MIC (strain A18, EA=95% ethanol extract): 32 µg/mL
MIC (strain A19, EA=60% ethanol extract): 32 µg/mL
MIC (strain A19, EA=95% ethanol extract): 32 µg/mL
MIC (strain A20, EA=60% ethanol extract): 32 µg/mL
MIC (strain A20, EA=95% ethanol extract): 32 µg/mL
combined-use MIC (strain A1, EA (10% ethanol extract) with IMP): 0.5 µg/mL
combined-use MIC (strain A1, EA (60% ethanol extract) + IMP combined): 0.5 µg/mL
combined-use MIC (strain A1, EA (95% ethanol extract) + IMP combined): 0.5 µg/mL
combined-use MIC (strain A1, EA (water extract) with IMP): 0.5 µg/mL
combined-use MIC (strain A2, EA (10% ethanol extract) with IMP): 8 µg/mL
combined-use MIC (strain A2, EA (60% ethanol extract) + IMP combined): 8 µg/mL
combined-use MIC (strain A2, EA (95% ethanol extract) + IMP combined): 8 µg/mL
combined-use MIC (strain A2, EA (water extract) with IMP): 16 µg/mL
combined-use MIC (strain A3, EA (10% ethanol extract) with IMP): 8 µg/mL
combined-use MIC (strain A3, EA (60% ethanol extract) + IMP combined): 8 µg/mL
combined-use MIC (strain A3, EA (95% ethanol extract) + IMP combined): 8 µg/mL
combined-use MIC (strain A3, EA (water extract) with IMP): 16 µg/mL
combined-use MIC (strain A4, EA (10% ethanol extract) with IMP): 8 µg/mL
combined-use MIC (strain A4, EA (60% ethanol extract) + IMP combined): 0.5 µg/mL
combined-use MIC (strain A4, EA (95% ethanol extract) + IMP combined): 0.5 µg/mL
combined-use MIC (strain A4, EA (water extract) with IMP): 1 µg/mL
combined-use MIC (strain A5, EA (10% ethanol extract) with IMP): 8 µg/mL
combined-use MIC (strain A5, EA (60% ethanol extract) + IMP combined): 8 µg/mL
combined-use MIC (strain A5, EA (water extract) with IMP): 16 µg/mL
combined-use MIC (strain A6, EA (10% ethanol extract) with IMP): 4 µg/mL
combined-use MIC (strain A6, EA (60% ethanol extract) + IMP combined): 16 µg/mL
combined-use MIC (strain A6, EA (95% ethanol extract) + IMP combined): 16 µg/mL
combined-use MIC (strain A6, EA (water extract) with IMP): 16 µg/mL
combined-use MIC (strain A7, EA (10% ethanol extract) with IMP): 8 µg/mL
combined-use MIC (strain A7, EA (60% ethanol extract) + IMP combined): 16 µg/mL
combined-use MIC (strain A7, EA (95% ethanol extract) + IMP combined): 16 µg/mL
combined-use MIC (strain A7, EA (water extract) with IMP): 16 µg/mL
combined-use MIC (strain A8, EA (10% ethanol extract) with IMP): 16 µg/mL
combined-use MIC (strain A8, EA (60% ethanol extract) + IMP combined): 16 µg/mL
combined-use MIC (strain A8, EA (95% ethanol extract) + IMP combined): 16 µg/mL
combined-use MIC (strain A8, EA (water extract) with IMP): 16 µg/mL
combined-use MIC (strain A9, EA (10% ethanol extract) with IMP): 8 µg/mL
combined-use MIC (strain A9, EA (60% ethanol extract) + IMP combined): 4 µg/mL
combined-use MIC (strain A9, EA (95% ethanol extract) + IMP combined): 4 µg/mL
combined-use MIC (strain A9, EA (water extract) with IMP): 16 µg/mL
combined-use MIC (strain A10, EA (10% ethanol extract) with IMP): 8 µg/mL
combined-use MIC (strain A10, EA (60% ethanol extract) + IMP combined): 8 µg/mL
combined-use MIC (strain A10, EA (95% ethanol extract) + IMP combined): 8 µg/mL
combined-use MIC (strain A10, EA (water extract) with IMP): 8 µg/mL
combined-use MIC (strain A11, EA (10% ethanol extract) with IMP): 8 µg/mL
combined-use MIC (strain A11, EA (60% ethanol extract) + IMP combined): 4 µg/mL
combined-use MIC (strain A11, EA (95% ethanol extract) + IMP combined): 4 µg/mL
combined-use MIC (strain A11, EA (water extract) with IMP): 8 µg/mL
combined-use MIC (strain A12, EA (10% ethanol extract) with IMP): 8 µg/mL
combined-use MIC (strain A12, EA (60% ethanol extract) + IMP combined): 8 µg/mL
combined-use MIC (strain A12, EA (95% ethanol extract) + IMP combined): 8 µg/mL
combined-use MIC (strain A12, EA (water extract) with IMP): 16 µg/mL
combined-use MIC (strain A13, EA (10% ethanol extract) with IMP): 8 µg/mL
combined-use MIC (strain A13, EA (60% ethanol extract) + IMP combined): 8 µg/mL
combined-use MIC (strain A13, EA (95% ethanol extract) + IMP combined): 8 µg/mL
combined-use MIC (strain A13, EA (water extract) with IMP): 16 µg/mL
combined-use MIC (strain A14, EA (10% ethanol extract) with IMP): 16 µg/mL
combined-use MIC (strain A14, EA (60% ethanol extract) + IMP combined): 4 µg/mL
combined-use MIC (strain A14, EA (95% ethanol extract) + IMP combined): 8 µg/mL
combined-use MIC (strain A14, EA (water extract) with IMP): 4 µg/mL
combined-use MIC (strain A15, EA (10% ethanol extract) with IMP): 8 µg/mL
combined-use MIC (strain A15, EA (60% ethanol extract) + IMP combined): 4 µg/mL
combined-use MIC (strain A15, EA (95% ethanol extract) + IMP combined): 8 µg/mL
combined-use MIC (strain A15, EA (water extract) with IMP): 4 µg/mL
combined-use MIC (strain A16, EA (10% ethanol extract) with IMP): 8 µg/mL
combined-use MIC (strain A16, EA (60% ethanol extract) + IMP combined): 8 µg/mL
combined-use MIC (strain A16, EA (95% ethanol extract) + IMP combined): 8 µg/mL
combined-use MIC (strain A16, EA (water extract) with IMP): 8 µg/mL
combined-use MIC (strain A17, EA (10% ethanol extract) with IMP): 4 µg/mL
combined-use MIC (strain A17, EA (60% ethanol extract) + IMP combined): 2 µg/mL
combined-use MIC (strain A17, EA (95% ethanol extract) + IMP combined): 2 µg/mL
combined-use MIC (strain A17, EA (water extract) with IMP): 2 µg/mL
combined-use MIC (strain A18, EA (10% ethanol extract) with IMP): 16 µg/mL
combined-use MIC (strain A18, EA (60% ethanol extract) + IMP combined): 8 µg/mL
combined-use MIC (strain A18, EA (95% ethanol extract) + IMP combined): 8 µg/mL
combined-use MIC (strain A18, EA (water extract) with IMP): 8 µg/mL
combined-use MIC (strain A19, EA (10% ethanol extract) with IMP): 8 µg/mL
combined-use MIC (strain A19, EA (60% ethanol extract) + IMP combined): 8 µg/mL
combined-use MIC (strain A19, EA (95% ethanol extract) + IMP combined): 8 µg/mL
combined-use MIC (strain A19, EA (water extract) with IMP): 8 µg/mL
combined-use MIC (strain A20, EA (10% ethanol extract) with IMP): 8 µg/mL
combined-use MIC (strain A20, EA (60% ethanol extract) + IMP combined): 8 µg/mL
combined-use MIC (strain A20, EA (95% ethanol extract) + IMP combined): 8 µg/mL
combined-use MIC (strain A20, EA (water extract) with IMP): 8 µg/mL
combined-use MIC (strain AS, EA (95% ethanol extract) + IMP combined): 8 µg/mL
SMILES: C[C@@H](O)[C@H]1C(=O)N2C(C(=O)O)=C(SCCN=CN)C[C@H]12 [IMP, imipenem]
FIC, all strains [1]: ≤ 1
share of strains with FIC ≤ 0.5 [1]: 70%
FIC, all strains [2]: ≤ 1
share of strains with FIC ≤ 0.5 [2]: 55%
FIC, all strains [3]: ≤ 1
share of strains with FIC ≤ 0.5 [3]: 45%
FIC, all strains [4]: ≤ 1
share of strains with FIC ≤ 0.5 [4]: 35%
